Experiments:
[1] = test system: patients with Niemann-Pick Type C (NPC); details: Bremova et al. (2015); cited from earlier work
[2] = test system: ataxia telangiectasia patients; test: Case studies, ataxia telangiectasia patients (SARA, SCAFI, video-oculography); format: in vivo, human; details: for 8MWT: baseline 8.95 sec; for PATA: baseline 14.5; for 9HPTND: baseline 71.2 sec; for 9HPTD: baseline 85.38 sec
From the text: For example, to evaluate overall neurological status, mDRS, a four-domain scale (ambulation, manipulation, language and swallowing), may be applied. Cerebellar function may be evaluated using SARA, an eight-item clinical rating scale (gait, stance, sitting, speech, fine motor function and taxis; range 0-40, where 0 is the best neurological status and 40 the worst), and SCAFI, comprising the 8-m-Walking-Time (8 MW; performed by having patients walking twice as quickly as possible from one line to another excluding turning), 9-Hole-Peg-Test (9HPT) and the number of “PATA” repetitions over 10 s. Subjective impairment and quality of life may be evaluated using the EQ-5D-5L questionnaire and VAS. To assess ocular motor function, 3-dimensional videooculography (EyeSeeCam) may be used to measure the peak velocity of saccades, gain of smooth pursuit, peak slow phase velocity of gaze-evoked nystagmus (gaze-holding function), peak slow phase velocity of optokinetic nystagmus, and gain of horizontal vestibulo-ocular reflex. To evaluate the cognitive state, WAIS-R or WISC-IV, and MoCA, assessing different cognitive domains, including attention and concentration, executive functions, memory, language, visuoconstructional skills, conceptual thinking, calculations, and orientation with a maximum of 30 points and a cut-off score of 26, may be used. The skilled person will know how to perform these and other such tests.
After one month of treatment, the patient was re-evaluated. […] Examination indicated a Scale for Assessment and Rating of Ataxia (SARA) score of 15.5/40. Results from the patient's Spinocerebellar Ataxia Functional Index (SCAFI) analysis were: • Mean 8-meters Walking Test (8 MW): 18.5 s • MW 9-Hole Pegboard Test Dominant (9HPTD) (right): 77.9 s • MW 9-Hole Pegboard Test Non-Dominant (9HPTND): 101.3 s • MW PATA Word Test: 13 • Visual analog scale (as evaluated by the patient): 85
After one month of treatment, the patient was re-evaluated. […] Examination indicated a Scale for Assessment and Rating of Ataxia (SARA) score of 23.5/40.
After slightly over 7 months of treatment, the patient was re-evaluated. […] Examination indicated a Scale for Assessment and Rating of Ataxia (SARA) score of 21.5/40.
After slightly over 1 month of treatment, the patient was re-evaluated. […] The patient also reported that drinking was easier and no longer needed a straw. […] Examination indicated a Scale for Assessment and Rating of Ataxia (SARA) score of 18.5/40.
After about 1 month of treatment, the patient was re-evaluated. […] On medication, they were able to walk with only holding the caregiver's hand.
The patient was evaluated after one month and six months of treatment, respectively. […] The patient, however, was suffering from anxiety, which would be expected to negatively influence the response.

[3] = ataxia telangiectasia Patient 1, after one month
[4] = ataxia telangiectasia Patient 1, after one month, Center
[5] = ataxia telangiectasia Patient 1, after one month, Down
[6] = ataxia telangiectasia Patient 1, after one month, Left
[7] = ataxia telangiectasia Patient 1, after one month, Right
[8] = ataxia telangiectasia Patient 1, after one month, Up
[9] = ataxia telangiectasia Patient 2, after one month
[10] = ataxia telangiectasia Patient 2, after one month, Center
[11] = ataxia telangiectasia Patient 2, after one month, Down
[12] = ataxia telangiectasia Patient 2, after one month, Left
[13] = ataxia telangiectasia Patient 2, after one month, Right
[14] = ataxia telangiectasia Patient 2, after one month, Up
[15] = ataxia telangiectasia Patient 3, after slightly over 7 months
[16] = ataxia telangiectasia Patient 3, after slightly over 7 months, Center
[17] = ataxia telangiectasia Patient 3, after slightly over 7 months, Down
[18] = ataxia telangiectasia Patient 3, after slightly over 7 months, Left
[19] = ataxia telangiectasia Patient 3, after slightly over 7 months, Right
[20] = ataxia telangiectasia Patient 4, after slightly over 1 month
[21] = ataxia telangiectasia Patient 4, after slightly over 1 month, Center
[22] = ataxia telangiectasia Patient 4, after slightly over 1 month, Down
[23] = ataxia telangiectasia Patient 4, after slightly over 1 month, Left
[24] = ataxia telangiectasia Patient 4, after slightly over 1 month, Right
[25] = ataxia telangiectasia Patient 5, after about 1 month
[26] = ataxia telangiectasia Patient 5, after about 1 month, Center
[27] = ataxia telangiectasia Patient 5, after about 1 month, Down
[28] = ataxia telangiectasia Patient 5, after about 1 month, Left
[29] = ataxia telangiectasia Patient 5, after about 1 month, Right
[30] = ataxia telangiectasia Patient 5, after about 1 month, Up
[31] = ataxia telangiectasia Patient 5, after almost 7 months
[32] = ataxia telangiectasia Patient 5, after slightly over a year
[33] = ataxia telangiectasia Patient 6, after one month
[34] = ataxia telangiectasia Patient 6, after six months

## CC(=O)NC(CC(C)C)C(=O)O (racemic) [acetyl-DL-leucine]
[1]
  Ataxia in one-month study involving 12 patients: symptomatic improvement of ataxia
[2]; [3]
  Caregivers' report: improvement of speech and gait
  Video-oculography (summary): significant improvement of fixation stability and decrease of intensity of downbeat-nystagmus
[2]; [4]
  Slow phase velocity of the gaze-holding nystagmus, Horizontal: 0.4
  Slow phase velocity of the gaze-holding nystagmus, Vertical: 4.77
[2]; [5]
  Slow phase velocity of the gaze-holding nystagmus, Horizontal: −0.44
  Slow phase velocity of the gaze-holding nystagmus, Vertical: 5.29
[2]; [6]
  Slow phase velocity of the gaze-holding nystagmus, Horizontal: 8.2
  Slow phase velocity of the gaze-holding nystagmus, Vertical: 8.85
[2]; [7]
  Slow phase velocity of the gaze-holding nystagmus, Horizontal: −0.95
  Slow phase velocity of the gaze-holding nystagmus, Vertical: 4.83
[2]; [8]
  Slow phase velocity of the gaze-holding nystagmus, Horizontal: 0.72
  Slow phase velocity of the gaze-holding nystagmus, Vertical: 2.67
[2]; ataxia telangiectasia Patient 1, after one month, before 12.5
  PATA Word Test: 13
[2]; ataxia telangiectasia Patient 1, after one month, before 21.8 s
  Mean 8-meters Walking Test (8 MW): 18.5 s
[2]; ataxia telangiectasia Patient 1, after one month, before 90.2 s
  9-Hole Pegboard Test Dominant (9HPTD) (right): 77.9 s
[2]; ataxia telangiectasia Patient 1, after one month, before 99
  Visual analog scale (as evaluated by the patient): 85
[2]; ataxia telangiectasia Patient 1, after one month, before 125.8 s
  9-Hole Pegboard Test Non-Dominant (9HPTND): 101.3 s
[2]; [9]
  Caregivers' report: improvement of fine motor function, hand tremor, and speech
  Mean 8-meters Walking Test (8 MW): not able to perform without support
  Video-oculography (summary): improvement of fixation stability and significant improvement of downbeat-nystagmus intensity
[2]; [10]
  Slow phase velocity of the gaze-holding nystagmus, Horizontal: −1.45
  Slow phase velocity of the gaze-holding nystagmus, Vertical: 5.6
[2]; [11]
  Slow phase velocity of the gaze-holding nystagmus, Horizontal: −2.5
  Slow phase velocity of the gaze-holding nystagmus, Vertical: 4.69
[2]; [12]
  Slow phase velocity of the gaze-holding nystagmus, Horizontal: 3.58
  Slow phase velocity of the gaze-holding nystagmus, Vertical: 7
[2]; [13]
  Slow phase velocity of the gaze-holding nystagmus, Horizontal: −3.45
  Slow phase velocity of the gaze-holding nystagmus, Vertical: 6.56
[2]; [14]
  Slow phase velocity of the gaze-holding nystagmus, Horizontal: −0.51
  Slow phase velocity of the gaze-holding nystagmus, Vertical: 3.15
[2]; ataxia telangiectasia Patient 2, after one month, before 13.5
  PATA Word Test: 14
[2]; ataxia telangiectasia Patient 2, after one month, before 45
  Visual analog scale (as evaluated by the patient): 80
[2]; ataxia telangiectasia Patient 2, after one month, before 299.2 s
  9-Hole Pegboard Test Non-Dominant (9HPTND): 300 s
[2]; ataxia telangiectasia Patient 2, after one month, before 300 s
  9-Hole Pegboard Test Dominant (9HPTD) (right): 300 s
[2]; [15]
  Caregivers' and patient's report: general improvement of well-being
  Mean 8-meters Walking Test (8 MW): not able to perform
  Video-oculography (summary): significant improvement of fixation stability and decrease of intensity of gaze-holding nystagmus at all positions
[2]; [16]
  Slow phase velocity of the gaze-holding nystagmus, Horizontal: −0.1 °/s
  Slow phase velocity of the gaze-holding nystagmus, Vertical: 0.4 °/s
[2]; [17]
  Slow phase velocity of the gaze-holding nystagmus, Horizontal: −0.6 °/s
  Slow phase velocity of the gaze-holding nystagmus, Vertical: 1.2 °/s
[2]; [18]
  Slow phase velocity of the gaze-holding nystagmus, Horizontal: 1.7 °/s
  Slow phase velocity of the gaze-holding nystagmus, Vertical: 0.1 °/s
[2]; [19]
  Slow phase velocity of the gaze-holding nystagmus, Horizontal: −4.2 °/s
  Slow phase velocity of the gaze-holding nystagmus, Vertical: 1.7 °/s
[2]; ataxia telangiectasia Patient 3, after slightly over 7 months, before 14
  PATA Word Test: 10
[2]; ataxia telangiectasia Patient 3, after slightly over 7 months, before 80
  Visual analog scale (as evaluated by the patient): 80
[2]; ataxia telangiectasia Patient 3, after slightly over 7 months, before 150 s
  9-Hole Pegboard Test Dominant (9HPTD) (right): 124.5 s
[2]; ataxia telangiectasia Patient 3, after slightly over 7 months, before 161.6 s
  9-Hole Pegboard Test Non-Dominant (9HPTND): 147.5 s
[2]; [20]
  Mean 8-meters Walking Test (8 MW): not able to perform
  Patient's and parent's report: improvement in handwriting
  Video-oculography (summary): general improvement of fixation stability and decrease of intensity of spontaneous and gaze-holding nystagmus at all positions
[2]; [21]
  Slow phase velocity of the gaze-holding nystagmus, Horizontal: −0.2 °/s
  Slow phase velocity of the gaze-holding nystagmus, Vertical: 4.8 °/s
[2]; [22]
  Slow phase velocity of the gaze-holding nystagmus, Horizontal: −0.7 °/s
  Slow phase velocity of the gaze-holding nystagmus, Vertical: −2.3 °/s
[2]; [23]
  Slow phase velocity of the gaze-holding nystagmus, Horizontal: −0.8 °/s
  Slow phase velocity of the gaze-holding nystagmus, Vertical: 1.9 °/s
[2]; [24]
  Slow phase velocity of the gaze-holding nystagmus, Horizontal: −1 °/s
  Slow phase velocity of the gaze-holding nystagmus, Vertical: 0.3 °/s
[2]; ataxia telangiectasia Patient 4, after slightly over 1 month, before 14
  PATA Word Test: 15.5
[2]; ataxia telangiectasia Patient 4, after slightly over 1 month, before 52.3 s
  9-Hole Pegboard Test Non-Dominant (9HPTND): 101.7 s
[2]; ataxia telangiectasia Patient 4, after slightly over 1 month, before 70
  Visual analog scale (as evaluated by the patient): 70
[2]; ataxia telangiectasia Patient 4, after slightly over 1 month, before 124.5 s
  9-Hole Pegboard Test Dominant (9HPTD) (right): 93.5 s
[2]; ataxia telangiectasia Patient 5, 5 g/day, after about 1 month
  Mother's report: significant improvement of stability of the gait
[2]; [25]
  Mean 8-meters Walking Test (8 MW): not able to walk without support
  Weight gained: 1.5 kg
[2]; [26]
  Slow-phase velocity (SPV) of fixation and gaze-holding nystagmus, Horizontal: 0.79 °/s
  Slow-phase velocity (SPV) of fixation and gaze-holding nystagmus, Vertical: 3.54 °/s
[2]; [27]
  Slow-phase velocity (SPV) of fixation and gaze-holding nystagmus, Horizontal: 0.62 °/s
  Slow-phase velocity (SPV) of fixation and gaze-holding nystagmus, Vertical: 1.08 °/s
[2]; [28]
  Slow-phase velocity (SPV) of fixation and gaze-holding nystagmus, Horizontal: 1.22 °/s
  Slow-phase velocity (SPV) of fixation and gaze-holding nystagmus, Vertical: 2.53 °/s
[2]; [29]
  Slow-phase velocity (SPV) of fixation and gaze-holding nystagmus, Horizontal: 1.17 °/s
  Slow-phase velocity (SPV) of fixation and gaze-holding nystagmus, Vertical: 2.36 °/s
[2]; [30]
  Slow-phase velocity (SPV) of fixation and gaze-holding nystagmus, Horizontal: 0.33 °/s
  Slow-phase velocity (SPV) of fixation and gaze-holding nystagmus, Vertical: 1.71 °/s
[2]; ataxia telangiectasia Patient 5, after about 1 month, before 6
  PATA Word Test: 7.5
[2]; ataxia telangiectasia Patient 5, after about 1 month, before 90
  Visual analog scale (as evaluated by the patient): 80
[2]; ataxia telangiectasia Patient 5, after about 1 month, before 102.7 s
  9-Hole Pegboard Test Dominant (9HPTD) (right): 103.6 s
[2]; ataxia telangiectasia Patient 5, after about 1 month, before 116.8 s
  9-Hole Pegboard Test Non-Dominant (9HPTND): 88.8 s
[2]; [31]
  9-Hole Pegboard Test Dominant (9HPTD) (right): 92.4 s
  9-Hole Pegboard Test Non-Dominant (9HPTND): 98.3 s
  Further weight gained: 3 kg
  Mother's report: significantly more stable gait
  PATA Word Test: 11
  Visual analog scale (as evaluated by the patient): 100
[2]; ataxia telangiectasia Patient 5, after almost 7 months, holding of the hand
  Mean 8-meters Walking Test (8 MW): 15.3 s
[2]; [32]
  9-Hole Pegboard Test Dominant (9HPTD) (right): 95.6 s
  9-Hole Pegboard Test Non-Dominant (9HPTND): 127.6 s
  Clinical observation: improved social interaction, activity, and agility
  PATA Word Test: 14.5
  Visual analog scale (as evaluated by the patient): 95
[2]; ataxia telangiectasia Patient 5, after slightly over a year, able to walk by themself, parent held hand
  Mean 8-meters Walking Test (8 MW): 13.9 s
[2]; ataxia telangiectasia Patient 5, after slightly over a year, suspected infantile migraine
  Adverse observation: repeatedly occuring frontal localized pain with vomiting in the morning
[2]; [33]
  Clinical observation: increased fine motor skills with reduced hand tremor, improved postural stability and gait, increased enunciation, and increased self-confidence
  8MWT: 8.45 s
  PATA: 15.5
  9HPTND: 70.39 s
  9HPTD: 81.95 s
[2]; [34]
  Clinical observation: stable general conditions, stable gait and stance, and improved handwriting
  8MWT: 7.53 s
  PATA: 13
  9HPTND: 80.32 s
  9HPTD: 136.27 s
[2]; ataxia telangiectasia Patient 6, after six months, baseline 11/40
  SARA: 11/40

From US11793782B2, “Therapeutic agents for neurodegenerative diseases” (priority 2017, dated 2023)
